Biological target: T1, Caspase-1 (Homo sapiens, UniProt P29466)
T1 sequence (P29466 whole entry): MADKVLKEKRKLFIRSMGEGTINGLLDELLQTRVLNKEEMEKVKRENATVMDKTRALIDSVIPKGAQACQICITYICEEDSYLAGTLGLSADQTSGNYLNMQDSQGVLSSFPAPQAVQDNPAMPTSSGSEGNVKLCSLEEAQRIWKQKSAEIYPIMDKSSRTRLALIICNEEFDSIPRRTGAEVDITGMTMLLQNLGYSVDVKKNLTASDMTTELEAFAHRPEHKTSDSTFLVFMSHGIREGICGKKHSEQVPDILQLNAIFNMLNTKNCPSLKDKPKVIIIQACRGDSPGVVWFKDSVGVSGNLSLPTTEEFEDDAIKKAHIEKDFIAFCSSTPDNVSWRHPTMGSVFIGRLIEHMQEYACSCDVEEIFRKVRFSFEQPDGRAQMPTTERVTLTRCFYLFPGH
Test: Yeast CASP1/ASC signal blockade, IC50 values, counterassay for NLRP1 inhibitor project (AID 488863)

SMILES	IC50
Oc1cc(Sc2nnnn2-c2ccccc2)c(O)n1-c1cccc(Cl)c1	5.13 µM
COc1ccccc1-n1c(O)c2c(c1O)CC(c1ccccc1)CC2 (stereo not drawn)	> 100 µM
Cc1ccc(-n2c(O)cc(Sc3ccccc3C(=O)O)c2O)cc1	20.6 µM
